pKi: −log10 of the molar value.
Target: T1, human FAAH (Homo sapiens, UniProt O00519)
T1 construct: host or cells: COS-7 cells, transient transfection (FuGENE 6); 13,000 g membrane fraction solubilised in 1% Triton X-100
T1 sequence (O00519 1-579): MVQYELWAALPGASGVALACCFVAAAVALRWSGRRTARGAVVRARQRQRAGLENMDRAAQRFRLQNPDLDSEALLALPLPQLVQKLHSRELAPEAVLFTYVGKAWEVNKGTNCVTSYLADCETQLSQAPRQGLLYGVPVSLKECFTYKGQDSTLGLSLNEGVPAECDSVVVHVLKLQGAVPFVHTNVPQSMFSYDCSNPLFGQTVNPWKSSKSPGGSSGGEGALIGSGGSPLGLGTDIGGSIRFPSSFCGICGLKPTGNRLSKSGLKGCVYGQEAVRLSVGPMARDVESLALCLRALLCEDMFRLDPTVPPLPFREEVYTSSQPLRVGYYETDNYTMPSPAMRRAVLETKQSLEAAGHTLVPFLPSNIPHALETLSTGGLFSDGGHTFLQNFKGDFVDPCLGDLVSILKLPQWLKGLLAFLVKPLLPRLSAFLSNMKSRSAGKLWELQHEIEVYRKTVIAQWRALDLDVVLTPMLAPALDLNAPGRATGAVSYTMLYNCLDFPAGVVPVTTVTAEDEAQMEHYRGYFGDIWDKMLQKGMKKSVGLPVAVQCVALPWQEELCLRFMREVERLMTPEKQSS
Experiment: Human FAAH biochemical inhibition assay (AMC arachidonoyl amide fluorescence)
Settings: Table A, read-out: Activity (Ki) of other boronic acids tested, Table A
How it was run: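 Human FAAH from solubilized membranes of transiently transfected COS-7 cells, 0.1 mg/mL in 50 mM Hepes pH 7.5, 1 mM EDTA, 0.2% Triton X-100, preincubated 30 min at room temperature with 3-fold serially diluted inhibitor. Hydrolysis of AMC arachidonoyl amide read by fluorescence (ex 355/em 460 nm). Data fitted to single-site competitive inhibition with Km fixed at 9 μM.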

Row | SMILES | pKi
1 | O=C(Nc1ccccn1)c1ccc(B(O)O)cc1 | 7.00 to 8.00

Same assay, conditions: class given in each Example, read-out: Activity (Ki, inhibition of human FAAH)

Row | SMILES | pKi
2 | OB(O)c1ccc([C@@H]2OC[C@H](c3ccccc3)O2)cc1 [Compound 180] | ≥ 8.00
3 | OB(O)c1ccccc1-c1nnc(-c2ccccc2)o1 [Compound 31] | < 6.00
4 | O=C(N/N=C/c1cc(OCc2ccccc2)ccc1B(O)O)c1cccnc1 [Compound 125] | 7.00 to 8.00
5 | OB(O)c1ccc(-c2nnc(-c3ccccc3)o2)c(Cl)c1 [Compound 68] | ≥ 8.00
6 | OB(O)c1ccc(-c2nnc(-c3ccccc3)o2)c(F)c1 [Compound 67] | 7.00 to 8.00
7 | OB(O)c1ccc(-c2nnc(-c3cccc4c3OCO4)s2)cc1 [Compound 50] | ≥ 8.00
8 | CCCc1cc(-c2ccccc2B(O)O)no1 [Compound 168] | < 6.00
9 | OB(O)c1ccc(-c2nnc(-c3cccc(C(F)(F)F)c3)s2)cc1 [Compound 48] | ≥ 8.00
10 | OB(O)c1ccc(-c2nnc(CCC(F)(F)C(F)(F)F)o2)cc1 [Compound 20] | ≥ 8.00
11 | OB1c2sccc2C=NN1Cc1ccccc1 [Compound 256] | < 6.00
12 | COCc1cc(OCCc2ccccc2)ccc1B(O)O [Compound 95] | 7.00 to 8.00
13 | CCCc1nc2ccc(B(O)O)cc2o1 [Compound 244] | ≥ 8.00
14 | OB(O)c1ccc(-c2cn(Cc3ccc(C(F)(F)F)cc3)nn2)cc1 [Compound 127] | 6.00 to 7.00
15 | OB1ON=Cc2cc(OCCc3ccccc3)ccc21 [Compound 104] | 7.00 to 8.00
16 | O=C(CCN1C(=O)C=CC1=O)N/N=C/c1cc(OCCc2ccccc2)ccc1B(O)O [Compound 119] | ≥ 8.00
17 | CCCc1nnc(-c2cc(OC)ccc2B(O)O)o1 [Compound 260] | < 6.00
18 | O=C1CC(c2nc3ccc(B(O)O)cc3o2)CN1c1ccccc1 (stereo not drawn) [Compound 248] | 7.00 to 8.00
19 | OB(O)c1ccc(-c2nnc(Cc3ccccc3)o2)cc1F [Compound 69] | 7.00 to 8.00
20 | OB(O)c1ccc2nc(Oc3ccccc3)ccc2c1 [Compound 187] | ≥ 8.00
21 | CC(C)c1ccc(CN2CCC(c3ccc(B(O)O)cc3)CC2)cc1 [Compound 280] | 7.00 to 8.00
22 | CCCc1cnc(-c2cc(OCCc3ccccc3)ccc2B(O)O)s1 [Compound 276] | 7.00 to 8.00

Row | SMILES | pKi
23 | OB(O)c1ccc(-c2nnc(-c3cccc4c3OCCO4)o2)cc1 [Compound 43] | ≥ 8.00
24 | OB(O)c1ccc(-c2nnc(-c3cccnc3)s2)cc1 [Compound 49] | ≥ 8.00
25 | COCCCc1cn(-c2ccccc2)nc1-c1ccc(B(O)O)cc1 [Compound 92] | < 6.00
26 | COc1ccc2cc(-c3ccc(B(O)O)cc3)ccc2c1 [Compound 228] | 7.00 to 8.00
27 | CCOc1ccc2cc(B(O)O)ccc2n1 [Compound 203] | 7.00 to 8.00
28 | CN(C)c1nnc(-c2ccccc2B(O)O)o1 [Compound 282] | < 6.00
29 | OB(O)c1ccc(-c2nnc(-c3ccccc3)o2)cc1 [Compound 71] | ≥ 8.00
30 | OB(O)c1ccc(-c2nnc(-c3cccc4c3OC(F)(F)O4)o2)cc1 [Compound 52] | ≥ 8.00
31 | CC(C)Cn1cc(B(O)O)cn1 [Compound 220] | 6.00 to 7.00
32 | CCCCCCc1nnc(-c2ccc(B(O)O)cc2)o1 [Compound 37] | ≥ 8.00
33 | OB(O)c1ccc(OCc2ccccc2)cc1CNCc1ccccc1 [Compound 111] | 6.00 to 7.00
34 | O=C(Cc1ccccc1)N/N=C/c1ccccc1B(O)O [Compound 121] | < 6.00
35 | OB(O)c1ccc2nc(OCc3ccccc3)ccc2c1 [Compound 193] | ≥ 8.00
36 | OB(O)c1ccc(-c2nnc(-c3ccccc3)o2)cc1F [Compound 79] | 7.00 to 8.00
37 | OB(O)c1ccc(-c2nnc(CCC3CCCC3)o2)cc1 [Compound 33] | ≥ 8.00
38 | CCCCCc1nnc(-c2ccc(B(O)O)cc2Cl)o1 [Compound 29] | ≥ 8.00
39 | CCCCOc1ccc2cc(B(O)O)ccc2n1 [Compound 191] | ≥ 8.00
40 | OB(O)c1ccc(-c2nc(CCc3ccccc3)c(-c3ccccc3)s2)cc1 [Compound 8] | < 6.00
41 | CC(C)(C)OC(=O)N1CCN(C(=O)CCB(O)O)CC1 [Compound 323] | 6.00 to 7.00
42 | OB(O)c1ccc(C2=NOC(c3cccnc3)C2)cc1 (stereo not drawn) [Compound 165] | 7.00 to 8.00

— patent US8957049B2, “Inhibitors of fatty acid amide hydrolase” (Infinity Pharmaceuticals, Inc., priority 2008, dated 2015)
